Assay: DPPH radical scavenging antioxidant test
Assay type: biochemical
Conditions: 517 nm; for Inhibition (radical scavenging inhibition): 0.2 mL DPPH (0.75 mM), compound 3 μM in ethanol, 30 min incubation in the dark
Procedure: The antioxidant properties of the 8-((4-hydroxy-3-methoxyphenyl)diazenyl) naphthalene-1,3-disulfonic acid were studied by adding 0.2 mL DPPH (0.75 mM)) to compound 8-((4-hydroxy-3-methoxyphenyl)diazenyl) naphthalene-1,3-disulfonic acid (III) (3 μM) in ethanol. After 30 min of incubation in the dark, the absorbance was read against a blank at 517 nm. Ascorbic acid (vitamin C) was used as standard antioxidants (positive control). A blank sample was prepared by 0.2 ml of DPPH in 3 mL ethanol. A negative control sample was run using ethanol instead of the sample. The radical scavenging inhibition was calculated using the following equation: […]

Row | SMILES | Inhibition (radical scavenging inhibition) [%] | antioxidant potential to vanish the DPPH radical distinctive colors, compared to vitamin C (DPPH in vitro test, vitamin C as positive control)
1 | O=C1O[C@H]([C@@H](O)CO)C(O)=C1O [vit c, Ascorbic acid, reference compound] | 74 | –
2 | COc1cc(/N=N/c2cccc3cc(S(=O)(=O)O)cc(S(=O)(=O)O)c23)ccc1O [Product III, 8-((4-hydroxy-3-methoxyphenyl)diazenyl) naphthalene-1,3-disulfonic acid] | 48 | high potential as an antioxidant compared to vitamin C
